According to US6624203B1, “Nucleic acid bases used in ophthalmic solutions” (priority 2001, dated 2003):

Experiments:
[1] = test system: Acanthamoeba castellanii cysts; test: In vitro anti-acanthamoeba activity (serial dilution, viable trophozoites, log reduction); format: cell-based; conditions: 0.5% guanine with PHMB 0.02% versus control without guanine
Description: A formulation containing 0.5% guanine was prepared in a 0.2% glycine buffer at pH 7.35. The solution was preserved with polyhexamethylene biquanide at 0.02%. A similar control was prepared except without the guanine. The in vitro anti-acanthamoeba activity of the test and control solutions was determined by exposing Acanthamoeba castellanii cysts to 2 ml of each solution at room temperature for 10 minutes. Subsequently, an aliquot of each solution was serial diluted in duplicate and incubated for 14 days. At the conclusion of the incubation period, the dilutions were examined for viable Acanthamoeba trophozoites. The log reduction was determined based on a comparison to the inoculum control. A negative control was performed to verify the technique. The following table provides the results of the in vitro studies.

[2] = test system: C. albicans; test: In vitro microbicidal activity against C. albicans (log reduction vs inoculum control); format: cell-based; conditions: 0.2% phosphate buffer, isotonic NaCl, PHMB 0.0001%, pH 7.2
Description: A formulation containing guanine was prepared in a 0.2% phosphate buffer. The solution was made isotonic with sodium chloride and preserved with polyhexamethylene biquanide at 0.0001%. The pH was adjusted to 7.2 with either 1 N sodium hydroxide or 1 N hydrochloric acid. The in vitro microbicidal activity of the test and control solution was determined by exposing C. albicans to 10 ml of each solution at room temperature for 4 and 24 hours. Subsequently, an aliquot of each solution was serial diluted onto agar plates and incubated for 48 hours at elevated temperatures. At the conclusion of the incubation period the plates are examined for the development of colonies. The log reduction was determined based on a comparison to the inoculum control. The following table provides the results of the in vitro studies.

## Nc1nc2nc[nH]c2c(=O)[nH]1 [Guanine, guanine]
[1]
  Effect of guanine on activity of preserved formulations against Acanthamoeba: improves the activity of preserved formulations against Acanthamoeba
[2]; C. albicans exposed to 10 ml solution at room temperature for 4 hours
  log reduction, 4 hours: 0.97
[2]; C. albicans exposed to 10 ml solution at room temperature for 24 hours
  log reduction, 24 hours: 3.05
